Measurements taken from patent US20230016526A1, “SYSTEM AND METHODS FOR MANIPULATION OF THE ORAL MICROBIOME IN MAMMALS” (ANIMAL MICROBIOME ANALYTICS, INC. (D/B/A ANIMALBIOME), priority 2019, published 2023).

Test system: cat's oral microbiome
Assay: Microbial diversity metrics in sequential oral samples of a cat after a dental procedure with cefovecin sodium
Assay type: in vivo
Conditions: tooth extraction and cefovecin sodium; for PD Evenness: Before 0.53; for HA Evenness: Before 0.62; for PD/HA Evenness: Before 0.85; for PD/HA Diversity: Before 1.21; for PD/HA Richness: Before 1.32; for HA Diversity: Before 1.87; for PD Diversity: Before 2.26; for Pathobiont Richness: Before 3; for HA Richness: Before 31; for PD Richness: Before 41
Description: Alpha diversity metrics (Amplified Sequence Variant Richness, Shannon Diversity, and Pielou's Evenness) were calculated for a subset of periodontal disease-associated bacteria (PD) and a subset of health-associated bacteria (HA). The range for PD richness in healthy cats and dogs is 0-39. The range for health richness in healthy cats and dogs is 20-50. For comparison, oral health of each individual was also assessed by examination by a veterinary technician and or a veterinarian and observations of oral health and breath were record as shown in the table below.
Microbial diversity metrics were assessed for three sequential samples collected from a cat with advanced periodontal disease with tooth resorption prior to a dental cleaning to remove calculus, tooth extraction, and treatment with cefovecin sodium, a broad-spectrum antibiotic. Microbial diversity measures for samples collected from a cat with advanced periodontal disease with tooth resorption prior to a dental procedure that included cleaning to remove calculus, tooth extraction, and antibiotic treatment. Samples were collected by swabbing the area between the gingival sulcus and the gingival margin and were sequenced using the Illumina MiniSeq. […] At five weeks after, PD richness had increased but PD diversity had decreased, likely driven by a reduction in evenness. At five weeks after, for HA microbes, there were increases in richness, diversity, and evenness, and the PD/HA ratios for richness and diversity had decreased. Thus, this cat's oral microbiome began to show signs of recovery in a sample collected five weeks later.

[1] = Five weeks after dental cleaning
[2] = Two weeks after dental cleaning

## CO/N=C(/C(=O)N[C@@H]1C(=O)N2C(C(=O)[O-])=C([C@@H]3CCCO3)CS[C@H]12)c1csc(N)n1.[Na+] [cefovecin sodium]
[1]
  PD Evenness: 0.62
  HA Evenness: 0.58
  PD/HA Evenness: 1.07
  PD/HA Diversity: 1.15
  PD/HA Richness: 0.92
  HA Diversity: 1.62
  PD Diversity: 1.86
  Pathobiont Richness: 2
  HA Richness: 25
  PD Richness: 23
[2]
  PD Evenness: 0.74
  HA Evenness: 0.43
  PD/HA Evenness: 1.72
  PD/HA Diversity: 1.95
  PD/HA Richness: 1.46
  HA Diversity: 1.11
  PD Diversity: 2.17
  Pathobiont Richness: 2
  HA Richness: 13
  PD Richness: 19
